{"source": "ChEMBL document CHEMBL2401715", "about": "“Synthesis, antitumor and antibacterial activities of some novel tetrahydrobenzo[4,5]thieno[2,3-d]pyrimidine derivatives” (Eur J Med Chem, 2013)", "key": {"Bacillus subtilis": {"tested_on": "Bacillus subtilis", "assay": "Antibacterial activity against Bacillus subtilis ATCC 6051 assessed as growth inhibition after 24 to 48 hrs by kirby-bauer disc diffusion method; note: test concentration or dose not given here", "format": "functional"}, "Pseudomonas aeruginosa": {"tested_on": "Pseudomonas aeruginosa", "assay": "Antibacterial activity against Pseudomonas aeruginosa ATCC 10145 assessed as growth inhibition after 24 to 48 hrs by kirby-bauer disc diffusion method; note: test concentration or dose not given here", "format": "functional"}, "HepG2": {"tested_on": "HepG2", "assay": "Cytotoxicity against human HepG2 cells assessed as cell survival after 48 hrs by SRB assay", "format": "functional, cell-based", "conditions": "HepG2, 48 h"}, "MCF7": {"tested_on": "MCF7", "assay": "Cytotoxicity against human MCF7 cells assessed as cell survival after 48 hrs by SRB assay", "format": "functional, cell-based", "conditions": "MCF7, 48 h"}, "Staphylococcus aureus": {"tested_on": "Staphylococcus aureus", "assay": "Antibacterial activity against Staphylococcus aureus ATCC 12600 assessed as growth inhibition after 24 to 48 hrs by kirby-bauer disc diffusion method; note: test concentration or dose not given here", "format": "functional"}, "Escherichia coli": {"tested_on": "Escherichia coli", "assay": "Antibacterial activity against Escherichia coli ATCC 11775 assessed as growth inhibition after 24 to 48 hrs by kirby-bauer disc diffusion method; note: test concentration or dose not given here", "format": "functional, DSM 30083 = JCM 1649"}}, "note": "pIC50: −log10 of the molar value."}
{"smiles": "O=C(O)C(Cc1cc2ccccc2[nH]1)n1c(/C=C/c2ccccc2)nc2sc3c(c2c1=O)CCCC3", "note": "(stereo not drawn)", "values": [{"measurement": "diameter of the inhibition zone (DIZ)", "setting": "Bacillus subtilis", "result": 0, "unit": "mm"}, {"measurement": "diameter of the inhibition zone (DIZ)", "setting": "Pseudomonas aeruginosa", "result": 0, "unit": "mm"}, {"measurement": "pIC50", "setting": "HepG2", "result": 4.53}, {"measurement": "pIC50", "setting": "MCF7", "result": "< 3.70"}, {"measurement": "diameter of the inhibition zone (DIZ)", "setting": "Staphylococcus aureus", "result": 0, "unit": "mm"}, {"measurement": "diameter of the inhibition zone (DIZ)", "setting": "Escherichia coli", "result": 0, "unit": "mm"}]}
{"smiles": "O=C1NOCC1n1c(/C=C/c2ccccc2)nc2sc3c(c2c1=O)CCCC3", "note": "(stereo not drawn)", "values": [{"measurement": "diameter of the inhibition zone (DIZ)", "setting": "Bacillus subtilis", "result": 15, "unit": "mm"}, {"measurement": "diameter of the inhibition zone (DIZ)", "setting": "Pseudomonas aeruginosa", "result": 16, "unit": "mm"}, {"measurement": "pIC50", "setting": "HepG2", "result": 5.16}, {"measurement": "pIC50", "setting": "MCF7", "result": 4.40}, {"measurement": "diameter of the inhibition zone (DIZ)", "setting": "Staphylococcus aureus", "result": 19, "unit": "mm"}, {"measurement": "diameter of the inhibition zone (DIZ)", "setting": "Escherichia coli", "result": 15, "unit": "mm"}]}
{"smiles": "O=c1cc(-n2c(/C=C/c3ccccc3)nc3sc4c(c3c2=O)CCCC4)[nH]c(=O)[nH]1", "values": [{"measurement": "diameter of the inhibition zone (DIZ)", "setting": "Bacillus subtilis", "result": 16, "unit": "mm"}, {"measurement": "diameter of the inhibition zone (DIZ)", "setting": "Pseudomonas aeruginosa", "result": 15, "unit": "mm"}, {"measurement": "pIC50", "setting": "HepG2", "result": 4.17}, {"measurement": "pIC50", "setting": "MCF7", "result": 4.95}, {"measurement": "diameter of the inhibition zone (DIZ)", "setting": "Staphylococcus aureus", "result": 18, "unit": "mm"}, {"measurement": "diameter of the inhibition zone (DIZ)", "setting": "Escherichia coli", "result": 15, "unit": "mm"}]}
{"smiles": "O=c1c2c3c(sc2nc(/C=C/c2ccccc2)n1-c1nc2ccccc2s1)CCCC3", "values": [{"measurement": "diameter of the inhibition zone (DIZ)", "setting": "Bacillus subtilis", "result": 13, "unit": "mm"}, {"measurement": "diameter of the inhibition zone (DIZ)", "setting": "Pseudomonas aeruginosa", "result": 14, "unit": "mm"}, {"measurement": "pIC50", "setting": "HepG2", "result": 4.97}, {"measurement": "pIC50", "setting": "MCF7", "result": 5.37}, {"measurement": "diameter of the inhibition zone (DIZ)", "setting": "Staphylococcus aureus", "result": 16, "unit": "mm"}, {"measurement": "diameter of the inhibition zone (DIZ)", "setting": "Escherichia coli", "result": 13, "unit": "mm"}]}
{"smiles": "Cc1ccc2sc(-n3c(/C=C/c4ccccc4)nc4sc5c(c4c3=O)CCCC5)nc2c1", "values": [{"measurement": "diameter of the inhibition zone (DIZ)", "setting": "Bacillus subtilis", "result": 15, "unit": "mm"}, {"measurement": "diameter of the inhibition zone (DIZ)", "setting": "Pseudomonas aeruginosa", "result": 14, "unit": "mm"}, {"measurement": "pIC50", "setting": "HepG2", "result": 4.44}, {"measurement": "pIC50", "setting": "MCF7", "result": 4.80}, {"measurement": "diameter of the inhibition zone (DIZ)", "setting": "Staphylococcus aureus", "result": 16, "unit": "mm"}, {"measurement": "diameter of the inhibition zone (DIZ)", "setting": "Escherichia coli", "result": 14, "unit": "mm"}]}
{"smiles": "O=c1c2c3c(sc2nc(/C=C/c2ccccc2)n1-c1nc2cc([N+](=O)[O-])ccc2s1)CCCC3", "values": [{"measurement": "diameter of the inhibition zone (DIZ)", "setting": "Bacillus subtilis", "result": 14, "unit": "mm"}, {"measurement": "diameter of the inhibition zone (DIZ)", "setting": "Pseudomonas aeruginosa", "result": 15, "unit": "mm"}, {"measurement": "pIC50", "setting": "HepG2", "result": 4.99}, {"measurement": "pIC50", "setting": "MCF7", "result": 5.91}, {"measurement": "diameter of the inhibition zone (DIZ)", "setting": "Staphylococcus aureus", "result": 15, "unit": "mm"}, {"measurement": "diameter of the inhibition zone (DIZ)", "setting": "Escherichia coli", "result": 14, "unit": "mm"}]}
{"smiles": "O=c1[nH]c(/C=C/c2ccccc2)nc2sc3c(c12)CCCC3", "values": [{"measurement": "diameter of the inhibition zone (DIZ)", "setting": "Bacillus subtilis", "result": 0, "unit": "mm"}, {"measurement": "diameter of the inhibition zone (DIZ)", "setting": "Pseudomonas aeruginosa", "result": 0, "unit": "mm"}, {"measurement": "pIC50", "setting": "HepG2", "result": 4.92}, {"measurement": "pIC50", "setting": "MCF7", "result": 4.55}, {"measurement": "diameter of the inhibition zone (DIZ)", "setting": "Staphylococcus aureus", "result": 0, "unit": "mm"}, {"measurement": "diameter of the inhibition zone (DIZ)", "setting": "Escherichia coli", "result": 0, "unit": "mm"}]}
{"smiles": "O=c1[nH]c(/C=C/c2ccccc2[N+](=O)[O-])nc2sc3c(c12)CCCC3", "values": [{"measurement": "diameter of the inhibition zone (DIZ)", "setting": "Bacillus subtilis", "result": 0, "unit": "mm"}, {"measurement": "diameter of the inhibition zone (DIZ)", "setting": "Pseudomonas aeruginosa", "result": 0, "unit": "mm"}, {"measurement": "pIC50", "setting": "HepG2", "result": 4.93}, {"measurement": "pIC50", "setting": "MCF7", "result": 4.93}, {"measurement": "diameter of the inhibition zone (DIZ)", "setting": "Staphylococcus aureus", "result": 0, "unit": "mm"}, {"measurement": "diameter of the inhibition zone (DIZ)", "setting": "Escherichia coli", "result": 10, "unit": "mm"}]}
{"smiles": "C/C(=C\\c1ccccc1)c1nc2sc3c(c2c(=O)[nH]1)CCCC3", "values": [{"measurement": "diameter of the inhibition zone (DIZ)", "setting": "Bacillus subtilis", "result": 0, "unit": "mm"}, {"measurement": "diameter of the inhibition zone (DIZ)", "setting": "Pseudomonas aeruginosa", "result": 0, "unit": "mm"}, {"measurement": "pIC50", "setting": "HepG2", "result": 4.48}, {"measurement": "pIC50", "setting": "MCF7", "result": 4.61}, {"measurement": "diameter of the inhibition zone (DIZ)", "setting": "Staphylococcus aureus", "result": 0, "unit": "mm"}, {"measurement": "diameter of the inhibition zone (DIZ)", "setting": "Escherichia coli", "result": 0, "unit": "mm"}]}
{"smiles": "COc1cc(-c2nc(NC(=O)NO)c3c4c(sc3n2)CCCC4)cc(OC)c1OC", "values": [{"measurement": "diameter of the inhibition zone (DIZ)", "setting": "Bacillus subtilis", "result": 0, "unit": "mm"}, {"measurement": "diameter of the inhibition zone (DIZ)", "setting": "Pseudomonas aeruginosa", "result": 0, "unit": "mm"}, {"measurement": "pIC50", "setting": "HepG2", "result": 5.63}, {"measurement": "pIC50", "setting": "MCF7", "result": 4.85}, {"measurement": "diameter of the inhibition zone (DIZ)", "setting": "Staphylococcus aureus", "result": 0, "unit": "mm"}, {"measurement": "diameter of the inhibition zone (DIZ)", "setting": "Escherichia coli", "result": 0, "unit": "mm"}]}
{"smiles": "O=C(NO)Nc1nc(/C=C/c2ccccc2)nc2sc3c(c12)CCCC3", "values": [{"measurement": "diameter of the inhibition zone (DIZ)", "setting": "Bacillus subtilis", "result": 11, "unit": "mm"}, {"measurement": "diameter of the inhibition zone (DIZ)", "setting": "Pseudomonas aeruginosa", "result": 12, "unit": "mm"}, {"measurement": "pIC50", "setting": "HepG2", "result": 5.49}, {"measurement": "pIC50", "setting": "MCF7", "result": 5.18}, {"measurement": "diameter of the inhibition zone (DIZ)", "setting": "Staphylococcus aureus", "result": 10, "unit": "mm"}, {"measurement": "diameter of the inhibition zone (DIZ)", "setting": "Escherichia coli", "result": 10, "unit": "mm"}]}
{"smiles": "Cc1c2ccc(N)cc2nc2cc(Nc3nc(/C=C/c4ccccc4)nc4sc5c(c34)CCCC5)ccc12", "values": [{"measurement": "diameter of the inhibition zone (DIZ)", "setting": "Bacillus subtilis", "result": 20, "unit": "mm"}, {"measurement": "diameter of the inhibition zone (DIZ)", "setting": "Pseudomonas aeruginosa", "result": 12, "unit": "mm"}, {"measurement": "pIC50", "setting": "HepG2", "result": 5.87}, {"measurement": "pIC50", "setting": "MCF7", "result": 6.24}, {"measurement": "diameter of the inhibition zone (DIZ)", "setting": "Staphylococcus aureus", "result": 21, "unit": "mm"}, {"measurement": "diameter of the inhibition zone (DIZ)", "setting": "Escherichia coli", "result": 12, "unit": "mm"}]}
{"smiles": "COc1cccc2c1C(=O)c1c(O)c3c(c(O)c1C2=O)C[C@@](O)(C(=O)CO)C[C@@H]3O[C@H]1C[C@H](N)[C@H](O)[C@H](C)O1", "note": "[DOXORUBICIN]", "values": [{"measurement": "pIC50", "setting": "HepG2", "result": 5.13}]}
